#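 Following 48 hours of exposure in 96-well plates, responses at five concentrations were used to interpolate endpoints linearly. Definition used: TGI = concentration required for complete inhibition of growth.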
# What was measured:
# Assay in all cases: NCI tumour cell line growth inhibition, 48 h
# [1] = system: LXFL 529 NSCLC
# [2] = system: M14 melanoma
# [3] = system: MALME-3M melanoma
# [4] = system: NCI-H23 lung
# [5] = system: RXF 393 renal
# [6] = system: SR leukemia
# [7] = system: SW-620 colon
# [8] = system: UACC-257 melanoma
# [9] = system: M19-MEL melanoma
# [10] = system: DU-145 prostate
# [11] = system: MCF7 breast
Compound,TGI [1],TGI [2],TGI [3],TGI [4],TGI [5],TGI [6],TGI [7],TGI [8],TGI [9],TGI [10],TGI [11]
CN(C)c1ccc(/C=C(\C#N)C(=O)c2ccccc2)cc1Br,> 100 µM,> 100 µM,> 100 µM,> 100 µM,29.6 µM,> 100 µM,> 100 µM,> 100 µM,–,–,–
CC(C)c1cccc(C(C)C)c1NC(=O)/C(Cc1nc2ccc(Cl)cc2[nH]c1=O)=N\NC(=O)C[N+](C)(C)C,–,> 100 µM,> 100 µM,> 100 µM,> 100 µM,> 100 µM,> 100 µM,> 100 µM,> 100 µM,–,–
Clc1cccc(C=NC23CC4CC(CC(C4)C2)C3)c1Cl,–,> 10 µM,> 10 µM,> 10 µM,> 10 µM,2.63 µM,> 10 µM,> 10 µM,–,> 10 µM,> 10 µM
CC(=O)Nc1ccc(S(=O)(=O)Nc2cnc3ccccc3n2)cc1,> 100 µM,> 100 µM,> 100 µM,> 100 µM,> 100 µM,> 100 µM,> 100 µM,> 100 µM,> 100 µM,–,–
O=C1C2Cc3ccccc3CN2C(=O)N1CN1CCCCC1 (centres undefined),> 100 µM,> 100 µM,> 100 µM,> 100 µM,–,> 100 µM,> 100 µM,–,> 100 µM,–,–
Nc1ccc(Oc2ccc(C34CC5CC(C3)CC(c3ccc(Oc6ccc(N)c(O)c6)cc3)(C5)C4)cc2)cc1O,–,3.05 µM,6.24 µM,4.1 µM,3.33 µM,> 100 µM,> 100 µM,4.72 µM,–,3.3 µM,8.95 µM
CN1CN(c2ccccc2)C2(CCN(C(=O)OC(C)(C)C)CC2)C1=O,–,> 100 µM,> 100 µM,> 100 µM,> 100 µM,> 100 µM,> 100 µM,> 100 µM,–,> 100 µM,> 100 µM
Cc1ccc(S(=O)(=O)N(CC(O)COc2ccccc2)c2ccccc2Cl)cc1 (centres undefined),–,31 µM,29.2 µM,31.1 µM,32 µM,35.1 µM,36.6 µM,29.3 µM,–,57.5 µM,58.5 µM
Cc1ccnc2[nH]c(-c3ccc(Cl)cc3)cc(=O)c12,–,> 100 µM,> 100 µM,> 100 µM,> 100 µM,5.97 µM,> 100 µM,> 100 µM,–,> 100 µM,> 100 µM
CC(C)(C)c1ccc(OCCOc2ccc(C(C)(C)C)cc2NC=O)c(NC=O)c1,–,20.7 µM,24.8 µM,40.7 µM,28.2 µM,> 48 µM,> 58.3 µM,27.4 µM,–,> 87.9 µM,23.2 µM
CCOC1=C2N=C(C(CC)c3ccc(F)cc3)N=C2C(=O)c2ccccc21 (centres undefined),> 90.3 µM,> 68.3 µM,61.8 µM,70.2 µM,39.5 µM,89.2 µM,> 100 µM,49 µM,> 59.4 µM,–,–
CCOC(=O)C1=C(C)NC(c2ccccc2)=C(C(=O)OCc2ccccc2)C1C#Cc1ccccc1 (centres undefined),–,> 100 µM,> 100 µM,> 100 µM,> 100 µM,> 100 µM,> 100 µM,> 100 µM,–,> 100 µM,> 100 µM
O=C(NC12CC3CC(CC(C3)C1)C2)n1cnc2c(Cl)ncnc21,–,50.7 µM,> 100 µM,65.4 µM,> 100 µM,29 µM,> 100 µM,> 100 µM,–,63.9 µM,> 100 µM
COc1cc(/C=[N+](\[O-])c2ccccc2Cl)ccc1OC(=S)S,–,> 100 µM,> 100 µM,> 100 µM,89.3 µM,> 100 µM,> 100 µM,> 100 µM,–,> 100 µM,> 100 µM
CCc1c[n+]2c(cc1C1=CN3c4ccccc4[C@]45CCN6C/C(=C/CO)[C@H](C[C@H]64)[C@@H]([C@@H]1O)[C@H]35)-c1[nH]c3ccccc3c1CC2,–,> 50 µM,> 50 µM,> 50 µM,> 50 µM,> 50 µM,> 50 µM,> 50 µM,–,> 50 µM,> 50 µM
CC(C)C(N=C1CC2CCC1(C(=O)Nc1ccccc1O)C2(C)C)c1ccccc1 (centres undefined),> 10 µM,> 10 µM,> 10 µM,> 10 µM,–,> 10 µM,> 10 µM,> 10 µM,> 10 µM,–,–
C#CCN1C(=O)CN2C(Cl)(Cl)C2(c2ccccc2)c2cc(Cl)ccc21 (centres undefined),> 100 µM,> 100 µM,> 100 µM,> 100 µM,> 100 µM,> 100 µM,> 100 µM,> 100 µM,> 100 µM,–,–
O=C(C#Cc1ccccc1)Nc1ccccc1CC(c1c[nH]c2ccccc12)c1c[nH]c2ccccc12,28.4 µM,39.6 µM,> 100 µM,37.1 µM,14 µM,–,27.4 µM,> 100 µM,47.8 µM,–,–

Compound,TGI [1],TGI [2],TGI [3],TGI [4],TGI [5],TGI [6],TGI [7],TGI [8],TGI [9],TGI [10],TGI [11]
COc1ccc(/C=N/NC(=O)NCCNCCO)cc1,> 100 µM,> 100 µM,> 100 µM,> 100 µM,> 100 µM,> 100 µM,> 100 µM,> 100 µM,> 100 µM,–,–
N#Cc1ccccc1C#C/C=C\C#Cc1ccccn1,–,28.8 µM,39.6 µM,25.5 µM,33.1 µM,36.2 µM,31.9 µM,28.8 µM,–,83.5 µM,33.5 µM
CC(C)C(C=O)C(O)(C(F)(F)F)C(F)(F)F (centres undefined),–,> 100 µM,> 100 µM,> 100 µM,> 100 µM,> 100 µM,> 100 µM,> 100 µM,–,> 100 µM,> 100 µM
C=C1C(O)C2OC(=O)C(=C)C2C(OC(=O)/C(C)=C/C)CC2(C)OC2C2OC12 (centres undefined),–,> 100 µM,29 µM,35.3 µM,35.6 µM,24.5 µM,> 100 µM,> 100 µM,–,> 100 µM,22.6 µM
Cc1cc2nc3c(C)c4ccccc4c(C)n3c2cc1C,–,> 10 µM,6.66 µM,> 10 µM,8.66 µM,9.01 µM,> 10 µM,> 10 µM,–,> 10 µM,> 10 µM
COC(=O)c1cc(NC(=O)Cn2c3ccccc3c3ccccc32)cn1C,–,> 100 µM,> 100 µM,> 100 µM,> 100 µM,> 100 µM,> 100 µM,> 100 µM,–,> 100 µM,> 100 µM
CCN(CC)CCNC(=O)C1COc2ccc(-c3cc(=O)c4ccccc4o3)cc2O1 (centres undefined),–,–,30.3 µM,60.3 µM,35.4 µM,–,45.9 µM,32 µM,32.5 µM,–,44.6 µM
CCC(/C(=N/NC(=O)C[N+](C)(C)C)c1ccccc1)C1OC(=O)c2ccccc21 (centres undefined),> 100 µM,> 100 µM,> 100 µM,> 100 µM,> 100 µM,> 100 µM,> 100 µM,> 100 µM,> 100 µM,–,–
CCCC(CCC(=O)O)(CCC(=O)O)[N+](=O)[O-],–,> 100 µM,> 100 µM,> 100 µM,> 100 µM,> 100 µM,> 100 µM,> 100 µM,–,> 100 µM,> 100 µM
N#Cc1cc([N+](=O)[O-])ccc1NC(=O)C(=O)Nn1c(=S)[nH]c2ccccc2c1=O,> 100 µM,> 100 µM,> 100 µM,> 100 µM,> 100 µM,> 100 µM,> 100 µM,> 100 µM,> 100 µM,–,–
Clc1ccc(CCNCCNC2(c3cc4ccccc4s3)CCCCC2)cc1Cl,–,3.97 µM,3.44 µM,3.38 µM,4 µM,4.19 µM,3.48 µM,3.29 µM,–,3.88 µM,3.18 µM
Cc1nc2cc3[nH]c4ccccc4c(=O)c3cc2s1,> 100 µM,> 100 µM,> 100 µM,> 100 µM,> 100 µM,> 100 µM,> 100 µM,> 100 µM,> 100 µM,–,–
CCOC(=O)C(NS(=O)(=O)c1ccccc1)(C(F)(F)F)P(=O)(OCC(C)C)OCC(C)C (centres undefined),–,> 100 µM,> 100 µM,> 100 µM,> 100 µM,> 100 µM,> 100 µM,> 100 µM,–,> 100 µM,> 100 µM
Nc1nc(Cl)cc(Oc2ccc(Cl)cc2)n1,–,> 100 µM,> 100 µM,> 100 µM,> 100 µM,> 100 µM,> 100 µM,> 100 µM,–,> 100 µM,> 100 µM
Nc1nc2c(nnn2C2C=C(CO)C(O)C2O)c(=O)[nH]1 (centres undefined),> 100 µM,> 100 µM,> 100 µM,> 100 µM,> 100 µM,> 100 µM,> 100 µM,> 100 µM,> 100 µM,–,–
CCN1CC2(CO)CCC(OC)C34C5CC6C(OC)CC(O)(C5C6OC)C(O)(C(OC)C23)C14 (centres undefined),–,–,> 375 µM,> 375 µM,> 375 µM,–,> 375 µM,> 375 µM,> 375 µM,–,> 375 µM
COc1cc([C@@H]2c3cc4c(cc3[C@H](OC3OC5COC(C(C)C)OC5C(O)C3O)C3COC(=O)[C@@H]32)OCO4)cc(OC)c1OC (some centres undefined),–,> 33 µM,30.5 µM,16.5 µM,9.46 µM,66.5 µM,> 100 µM,22.6 µM,–,55.5 µM,13.2 µM
CCOC(=O)/C(C(N)=O)=C(/O)c1cnccn1,–,> 100 µM,> 100 µM,> 100 µM,> 100 µM,> 100 µM,> 100 µM,> 100 µM,–,> 100 µM,> 100 µM

# From PubChem BioAssay (NCI)
